According to patent US20160038454A1, “INTRAVENOUS FORMULATIONS OF […] AS IMMUNOMODULATORS AND […] AGENTS” (priority 2013, published 2016):
“Also recorded” adds a separate entry of the source.

How the values were obtained:
[1] = TK: plasma triptolide levels, Calvert study (emulsion); format: in vivo, rodents; conditions: FIG. 1
Protocol: (§1) Triptolide prodrugs are generally believed to be safer than triptolide. […] Triptolide prodrugs as an emulsion formulation are believed to have a toxicokinetic profile characterized by a flat AUC with a minimized Cmax. [In conjunction, it was postulated that a sustained inhibition of RNA polymerase is needed for optimum efficacy which in turn requires a pharmcokinetic profile of constant exposure to drug]. […] The no effect dose (“NOAEL”) of PG796(MRx102) again exceeded 1.5 mg/kg/day intravenously for seven days in rodents confirming the initial results. It is interesting to ask why a prodrug of triptolide would be safer than the natural product itself; while not wishing to be bound by theory, perhaps the answer lies in the pharmacokinetic profile of triptolide administered either directly or released from its carrier, PG796(MRx102). […] It also remained above the therapeutic levels (shown as a thick line without symbols). The difference in the Cmax/AUC profile of PG796(MRx102) vs. triptolide is believed to be due to the physiochemical properties of the lipid prodrug/emulsion formulation combination. In general, triptolide prodrugs having a cLogP greater than 0.5 are more lipid-soluble than water soluble and are expected to take longer to convert to the drug form; such characteristics may yield a flatter conversion profile and less of a drug-release Cmax spike.
TK comparison of triptolide levels in Calvert and SRI studies—Males and Females

[2] = tested on: IL-2 production by Jurkat cells; experiment: cells; format: cell-based, human
Protocol: Test samples can be diluted to 1 mM in complete tissue culture medium. Aliquots are placed in microculture plates coated with anti-CD3 antibody (used to stimulate the production of IL-2 by Jurkat cells), and serial dilutions are prepared so that the final concentration encompass the range of 0.001 to 10,000 nM in log increments. Cells from an exponentially expanding culture of Jurkat human T cell line (#TIB-152 obtained from American Type Culture Collection, Manassas, Va.) are harvested, washed once by centrifugation, re-suspended in complete tissue culture medium, and diluted to a concentration of 2×10^6 cells/ml. A volume of 50 μl of Jurkat cells (1×10^5 cells) is added to wells containing 100 μl of the diluted compounds, 50 μl of PMA (10 ng/ml) is added to each well, and the plates are incubated at 37° C. in a 5% CO2 incubator. After 24 hours, the plates are centrifuged to pellet the cells, 150 μl of supernatant is removed from each well, and the samples are stored at −20° C. The stored supernatants are analyzed for human IL-2 concentration using the Luminex 100 (Luminex Corporation, Austin, Tex.), Luminex microspheres coupled with anti-IL-2 capture antibody, and fluorochrome-coupled anti-IL-2 detection antibody. The data are expressed as pg/ml of IL-2.

[3] = Solubility of PG796(MRx102) in triglyceride oils (GTO vs SBO); format: physicochemical; conditions: glyceryl trioctanoate vs soybean oil
NF-κB, Mcl-1 and XIAP = conditions: cited from earlier work
[4] = tested on: bulk, CD34(+) progenitor and CD34(+)CD38(−) stem/progenitor cells from AML patients; conditions: low nanomolar concentrations; also in coculture with mesenchymal stromal cells; Carter et al. 2012; cited from earlier work
[5] = Conversion to triptolide using human serum; format: in vitro ADME
From the text: (Xia Zhi Lin and Zhen You Lan, Haematologica, 93:14 (2008)).

[6] = Rodent toxicology study, intravenous, seven days; format: in vivo, rodents; conditions: in vivo, iv; intravenously for seven days in rodents; read-out: no effect dose (NOAEL)
Protocol: as §1

rodents = experiment: Rodent toxicology study, intravenous, seven days; format: in vivo
Protocol: as §1

Ba/F3-ITD cells = conditions: mice harboring Ba/F3-ITD cells; Carter et al. 2012; cited from earlier work
[7] = tested on: human T cell lymphoma (Jurkat) cells; experiment: in vitro; format: cell-based
Protocol: Test compounds may be dissolved in DMSO at a concentration of 20 mM. Further dilutions may be done in RPMI1640 medium (GIBCO, Rockville, Md.) supplemented with 10% Fetal Calf Serum (HyClone Laboratories, Logan, Utah).
Cytotoxicity of the compounds is determined in a standard MTT assay using Cell Proliferation Kit I (#1 465 007, Roche Diagnostics, Mannheim, Germany). Briefly, human T cell lymphoma (Jurkat) cells (4×10^5 per well) are cultured for 24 h, in 96-well tissue culture plates, in the presence of serial three-fold dilutions of test compounds or medium containing the same concentration of DMSO as in the test samples at each dilution point. The cultures are then supplemented with 10 μl/well MTT reagent for 4 h and then with 0.1 ml/well solubilizing reagent for an additional 16 h. Optical density at 570 nm (OD570) is measured on a ThermoScan microplate reader (Molecular Devices, Menlo Park, Calif.).

[8] = Jurkat cells, comparison with triptolide or PG490-88
[9] = incubated in human serum compared with mouse serum

Q: Which “triptolide Cmax after prodrug relative to triptolide administered directly” value ([1]; intravenous, emulsion) does the source give for `CC(C)[C@]12O[C@H]1[C@@H]1O[C@]13[C@]1(O[C@H]1C[C@H]1c4c(C(=O)c5ccccc5)oc(OC(=O)c5ccccc5)c4CC[C@@]13C)[C@@H]2O` [PG796, 18-deoxo-19-dehydro-18-benzoyloxy-19-benzoyl triptolide] here?
A: approximately one-tenth

Q: And the “triptolide blood levels over time” value ([1]; prodrug administered)?
A: remained relatively constant

Q: And the “IL-2 inhibition (in words)” value [2, 8]?
A: inhibited IL-2 production; also recorded: higher level of activity

Q: What about the “activity in IL-2 inhibition assay after incubation in human serum vs mouse serum” value [2, 9] of the same compound?
A: high, and essentially equivalent, activity

Q: What about the “solubility in GTO relative to SBO” value [3] of the same compound?
A: about 3.4 fold

Q: What about the “effect on mRNA levels, NF-κB, Mcl-1 and XIAP” value (NF-κB, Mcl-1 and XIAP) of the same compound?
A: reduced mRNA levels, reduced NF-κB and reduced Mcl-1 and XIAP

Q: And the “apoptosis in cells from AML patients” value [4]?
A: induced apoptosis

Q: What about the “conversion to triptolide in human serum” value [5] of the same compound?
A: rapidly and completely converted

Q: What about the NOAEL at 7 days [6] of the same compound?
A: > 1.5 mg/kg/day

Q: And the “gross or histopathologic toxic effects” value (rodents; intravenous doses up to 1.5 mg/kg/day for seven days, initial rodent toxicology study)?
A: no gross or histopathologic toxic effects

Q: And the “toxicity relative to triptolide (times less toxic)” value (rodents; intravenous, emulsion formulation, rodents, gross and histopathologic criteria)?
A: at least 20 times

Q: And the leukemia burden (Ba/F3-ITD cells)?
A: greatly decreased

Q: And the survival time (Ba/F3-ITD cells)?
A: increased

Q: What about the “cytotoxic activity in MTT assay (in words)” value [7, 8] of the same compound?
A: cytotoxic; also recorded: higher level of activity

Q: And the “activity in MTT assay after incubation in human serum vs mouse serum” value [7, 9]?
A: high, and essentially equivalent, activity
